Data as given in patent US20060052370A1, “Methods and compositions for treating nociceptive pain” (priority 2004, published 2006).
Entries after “also recorded” stand apart in the source; their conditions may differ. Read-outs that look alike come from different tables or passages of the source.

Experiments:
[1] = humans; cited from earlier work
[2] = memantine and morphine combination
[3] = humans; cited from earlier work; remark: listed apart in the source

Compound	Human PK (t½) [1]	Tmax [1]	cum. fraction ([2]; Time 1)	cum. fraction ([2]; Time 2)	cum. fraction ([2]; Time 4)	cum. fraction ([2]; Time 8)	cum. fraction ([2]; Time 12)	cum. fraction ([2]; Time 16)	cum. fraction ([2]; Time 20)	cum. fraction ([2]; Time 24)	Dose Dependent Tox [3]
NC12CC3CC(CC(C3)C1)C2 [Amantadine, 1-amino-adamantane]	15 h	3 h	–	–	–	–	–	–	–	–	–
CC(N)C12CC3CC(CC(C3)C1)C2 (stereo not shown) [Rimantadine, 1-(1-aminoethyl)adamantane]	25 h	6 h	–	–	–	–	–	–	–	–	–
CN1CC[C@]23c4c5ccc(O)c4O[C@H]2[C@@H](O)C=C[C@H]3[C@H]1C5 [Morphine]	–	–	0.2	0.3	0.4	0.5	0.6	0.7	0.8	0.9	–
CC12CC3CC(C)(C1)CC(N)(C3)C2 [Memantine, 1-amino-3,5-dimethyladamantane]	–	3 h	0.2	0.3	0.4	0.5	0.6	0.7	0.8	0.9	Dose escalation; also recorded: hallucination
